This assay addresses S1P1 (Homo sapiens (Human), UniProt P21453). The assay can be described thus: 35S-GTPγS binding, membranes from CHO cells expressing S1P1. The conditions noted are these: CHO cell membranes. It is filed as biochemical. The method, then:
Cells were suspended in 50 mM TRIS, pH 7.4, 2 mM EDTA, 250 mM Sucrose (buffer A) and 1× Complete protease inhibitor cocktail (Roche), and disrupted at 4° C. by N2 decompression using a cell disruption bomb (Parr Instrument). Following centrifugation at 1000 RPM for 10 min at 4° C., the supernatant was suspended in buffer A and centrifuged again at 19000 RPM for 60 min at 4° C. The pellet was then suspended in 10 mM HEPES, pH 7.4, 1 mM EDTA, 250 mM Sucrose (Buffer B), and 1× Complete EDTA-free protease inhibitor cocktail and homogenized using a potter. Membranes were flash frozen in liquid N2 and stored at −80° C. [33P]sphingosine 1-phosphate (3000 Ci/mmol; American Radiolabeled Chemicals, Inc.) was added to test compounds in DMSO. […] Specific binding was calculated by subtracting remaining radioactivity in the presence of 1000-fold excess of unlabeled SIP. Binding data were analyzed using the GraphPad Prism program.
After 60 min incubation at 30° C. on a shaker, plates were centrifuged for 10 min at 2000 RPM. […] Triplicate samples were averaged and expressed as % response relative to S1P activation in absence of compound (n=2).
In general terms: Binding of GTPγS marks nucleotide exchange on a G protein.

Where a name gives a salt, the structure may show the parent alone.

Chain of S1P1 (P21453 whole entry, species assumed): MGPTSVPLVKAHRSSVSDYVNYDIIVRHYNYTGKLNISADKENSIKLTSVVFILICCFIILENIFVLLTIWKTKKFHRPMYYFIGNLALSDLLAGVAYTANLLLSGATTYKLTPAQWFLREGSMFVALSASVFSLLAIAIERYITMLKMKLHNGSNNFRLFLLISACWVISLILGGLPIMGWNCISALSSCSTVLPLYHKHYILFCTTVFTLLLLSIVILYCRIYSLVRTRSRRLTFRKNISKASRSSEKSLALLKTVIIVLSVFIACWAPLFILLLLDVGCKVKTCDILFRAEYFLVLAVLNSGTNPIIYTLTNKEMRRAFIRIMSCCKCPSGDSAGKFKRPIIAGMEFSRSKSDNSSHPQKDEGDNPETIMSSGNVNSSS

As for `OCCNCc1ccc(-c2noc(-c3cnn(C4CCCCC4)c3-c3ccncc3)n2)cc1` [Example 56, 2-({4-[5-(1-cyclohexyl-5-pyridin-4-yl-1H-pyrazol-4-yl)-1,2,4-oxadiazol-3-yl]benzyl}amino)ethanol], the concentration giving a half-maximal response (EC50) (usually the concentration giving half of the maximal effect) turned out to be 0.011 µM.
Consider `Fc1ccc(F)c(-c2nc(-c3cnn(C4CCCCC4)c3-c3ccccc3)no2)c1` [Example 57, 3-(1-cyclohexyl-5-phenyl-1H-pyrazol-4-yl)-5-(2,5-difluorophenyl)-1,2,4-oxadiazole], for which the midpoint of the response, the EC50, lay at 0.049 µM.
On to `CS(=O)(=O)c1cccc(-c2nc(-c3cnn(C4CCCCC4)c3-c3ccccc3)no2)c1` [Example 58, 3-(1-cyclohexyl-5-phenyl-1H-pyrazol-4-yl)-5-[3-(methylsulfonyl)phenyl]-1,2,4-oxadiazole], for which the EC50 came out at 0.157 µM.
As to `FC(F)(F)c1cccc(-c2nc(-c3cnn(C4CCCCC4)c3-c3ccccc3)no2)c1` [Example 59, 3-(1-cyclohexyl-5-phenyl-1H-pyrazol-4-yl)-5-[3-(trifluoromethyl)phenyl]-1,2,4-oxadiazole], the EC50 amounted to 0.335 µM.
As for `Cc1c(-c2nc(-c3cc(F)ccc3F)no2)cnn1-c1ccccc1F` [Example 60, 3-(2,5-difluorophenyl)-5-[1-(2-fluorophenyl)-5-methyl-1H-pyrazol-4-yl]-1,2,4-oxadiazole], the EC50 amounted to 0.32 µM.
The compound `CN(CC(=O)O)Cc1ccc(-c2noc(-c3cnn(C4CCCCC4)c3-c3ccncc3)n2)cc1` [Example 61, N-{4-[5-(1-cyclohexyl-5-pyridin-4-yl-1H-pyrazol-4-yl)-1,2,4-oxadiazol-3-yl]benzyl}-N-methylglycine] displayed an EC50 of 0.022 µM.
Consider `OC1CN(Cc2ccc(-c3noc(-c4cnn(C5CCCCC5)c4-c4ccncc4)n3)cc2)C1` [Example 62, 1-{4-[5-(1-cyclohexyl-5-pyridin-4-yl-1H-pyrazol-4-yl)-1,2,4-oxadiazol-3-yl]benzyl}azetidin-3-ol], for which the EC50 was 0.003 µM.
For `CC(C)Cn1ncc(-c2nc(-c3ccc(CO)cc3)no2)c1C1CCOCC1` [Example 63], the concentration for a half-maximal effect (EC50) worked out at 0.428 µM.
The figure for `COCc1c(-c2nc(-c3ccc(CN4CCC(C(=O)O)CC4)cc3)no2)cnn1C1CCCCC1` [Example 64, 1-(4-{5-[1-cyclohexyl-5-(methoxymethyl)-1H-pyrazol-4-yl]-1,2,4-oxadiazol-3-yl}benzyl)piperidine-4-carboxylic acid] is 0.099 µM.
`O=C(O)CCNCc1ccc(-c2noc(-c3cnn(C4CCCCC4)c3-c3ccncc3)n2)cc1` [Example 65, N-{4-[5-(1-cyclohexyl-5-pyridin-4-yl-1H-pyrazol-4-yl)-1,2,4-oxadiazol-3-yl]benzyl}-beta-alanine]: a half-maximal response (EC50) required 0.001 µM.
Next, `c1cc(-c2c(-c3nc(-c4ccc(CN5CCC5)cc4)no3)cnn2C2CCCCC2)ccn1` [Example 66, 4-(4-{3-[4-(azetidin-1-ylmethyl)phenyl]-1,2,4-oxadiazol-5-yl}-1-cyclohexyl-1H-pyrazol-5-yl)pyridine]: 0.013 µM.
As for `COCc1c(-c2nc(-c3ccc(CNCCC(=O)O)cc3)no2)cnn1C1CCCCC1` [Example 67, N-(4-{5-[1-cyclohexyl-5-(methoxymethyl)-1H-pyrazol-4-yl]-1,2,4-oxadiazol-3-yl}benzyl)-beta-alanine], a half-maximal response (EC50) required 0.0014 µM.
Turning to `COCc1c(-c2nc(-c3ccc(CN4CC(C(=O)O)C4)cc3)no2)cnn1C1CCCCC1` [Example 68, 1-(4-{5-[1-cyclohexyl-5-(methoxymethyl)-1H-pyrazol-4-yl]-1,2,4-oxadiazol-3-yl}benzyl)azetidine-3-carboxylic acid], the EC50 worked out at 0.0003 µM.
Next, `COCc1c(-c2nc(-c3ccc(CO)cc3)no2)cnn1CC(C)C` [Example 69, (4-{5-[1-isobutyl-5-(methoxymethyl)-1H-pyrazol-4-yl]-1,2,4-oxadiazol-3-yl}phenyl)methanol]: 0.437 µM; `OCc1ccc(-c2noc(-c3cnn(C4CCCCC4)c3C3CCOCC3)n2)cc1` [Example 70, (4-{5-[1-cyclohexyl-5-(tetrahydro-2H-pyran-4-yl)-1H-pyrazol-4-yl]-1,2,4-oxadiazol-3-yl}phenyl)methanol]: 0.082 µM.
The compound `O=C(O)C1CCN(Cc2ccc(-c3noc(-c4cnn(C5CCCCC5)c4-c4ccncc4)n3)cc2)CC1` [Example 71, 1-{4-[5-(1-cyclohexyl-5-pyridin-4-yl-1H-pyrazol-4-yl)-1,2,4-oxadiazol-3-yl]benzyl}piperidine-4-carboxylic acid] yielded an EC50 of 0.006 µM.
`COCc1c(-c2nc(-c3ccc(CN(C)CC(=O)O)cc3)no2)cnn1C1CCCCC1` [Example 72, N-(4-{5-[1-cyclohexyl-5-(methoxymethyl)-1H-pyrazol-4-yl]-1,2,4-oxadiazol-3-yl}benzyl)-N-methylglycine] came in with a concentration for a half-maximal effect (EC50) of 0.119 µM.
The figure for `COCc1c(-c2nc(-c3ccc(CN4CC(O)C4)cc3)no2)cnn1C1CCCCC1` [Example 73, 1-(4-{5-[1-cyclohexyl-5-(methoxymethyl)-1H-pyrazol-4-yl]-1,2,4-oxadiazol-3-yl}benzyl)azetidin-3-ol] is 0.03 µM.
Next, `COCc1c(-c2nc(-c3ccc(CN4CCC(O)C4)cc3)no2)cnn1C1CCCCC1` (stereo not drawn) [Example 74, 1-(4-{5-[1-cyclohexyl-5-(methoxymethyl)-1H-pyrazol-4-yl]-1,2,4-oxadiazol-3-yl}benzyl)pyrrolidin-3-ol]: 0.086 µM; `COCc1c(-c2nc(-c3ccc(CN(C)C)cc3)no2)cnn1C1CCCCC1` [Example 75, 1-(4-{5-[1-cyclohexyl-5-(methoxymethyl)-1H-pyrazol-4-yl]-1,2,4-oxadiazol-3-yl}phenyl)-N,N-dimethylmethanamine]: 0.063 µM; `COCc1c(-c2nc(-c3ccc(CN4CC(C(=O)O)C4)cc3)no2)cnn1CC(C)C` [Example 76, 1-(4-{5-[1-isobutyl-5-(methoxymethyl)-1H-pyrazol-4-yl]-1,2,4-oxadiazol-3-yl}benzyl)azetidine-3-carboxylic acid]: 0.023 µM.
For the compound `CC(C)Cn1ncc(-c2nc(-c3ccc(CN(C)CC(=O)O)cc3)no2)c1-c1ccncc1` [Example 77, N-{4-[5-(1-isobutyl-5-pyridin-4-yl-1H-pyrazol-4-yl)-1,2,4-oxadiazol-3-yl]benzyl}-N-methylglycine], a half-maximal response (EC50) required 0.837 µM.
As for `COCCNCc1ccc(-c2noc(-c3cnn(C4CCCCC4)c3-c3ccncc3)n2)cc1` [Example 78, N-(4-(5-(1-cyclohexyl-5-(pyridin-4-yl)-1H-pyrazol-4-yl)-1,2,4-oxadiazol-3-yl)benzyl)-2-methoxyethanamine], the concentration for a half-maximal effect (EC50) was determined as 0.067 µM.
With `CC(C)Cn1ncc(-c2nc(-c3ccc(CN4CCC(O)C4)cc3)no2)c1-c1ccncc1` (stereo not drawn) [Example 80, 1-(4-(5-(1-isobutyl-5-(pyridin-4-yl)-1H-pyrazol-4-yl)-1,2,4-oxadiazol-3-yl)benzyl)pyrrolidin-3-ol, formate], the EC50 stood at 0.252 µM.
Take `CC(C)Cn1ncc(-c2nc(-c3ccc(CN(C)C)cc3)no2)c1-c1ccncc1` [Example 81, 1-(4-(5-(1-isobutyl-5-(pyridin-4-yl)-1H-pyrazol-4-yl)-1,2,4-oxadiazol-3-yl)phenyl)-N,N-dimethylmethanamine, formate]: the EC50 amounted to 0.195 µM.
The figure for `CC(C)Cn1ncc(-c2nc(-c3ccc(CN4CC(O)C4)cc3)no2)c1-c1ccncc1` [Example 82, 1-(4-(5-(1-isobutyl-5-(pyridin-4-yl)-1H-pyrazol-4-yl)-1,2,4-oxadiazol-3-yl)benzyl)azetidin-3-ol, formate] is 0.156 µM.
In turn, `Cc1nn(C2CCCCC2)cc1-c1nc(-c2cc(F)ccc2F)no1` [Example 83, 5-(1-cyclohexyl-3-methyl-1H-pyrazol-4-yl)-3-(2,5-difluorophenyl)-1,2,4-oxadiazole] came in with a half-maximal effective concentration (EC50) of 0.313 µM.
Compound `COCc1c(-c2nc(-c3ccc(CNCCC(=O)O)cc3)no2)cnn1CC(C)C` [Example 84, 3-(4-(5-(1-isobutyl-5-(methoxymethyl)-1H-pyrazol-4-yl)-1,2,4-oxadiazol-3-yl)benzylamino)propanoic acid] registered a half-maximal effective concentration (EC50) of 0.288 µM.
For the compound `CNCc1ccc(-c2noc(-c3cnn(CC(C)C)c3-c3ccncc3)n2)cc1` [Example 85, 1-(4-(5-(1-isobutyl-5-(pyridin-4-yl)-1H-pyrazol-4-yl)-1,2,4-oxadiazol-3-yl)phenyl)-N-methylmethanamine], the half-maximal effective concentration (EC50) was determined as 0.179 µM.
In the case of `Cc1c(-c2nc(-c3cc(F)ccc3F)no2)cnn1C1CCCCC1` [Example 86, 5-(1-cyclohexyl-5-methyl-1H-pyrazol-4-yl)-3-(2,5-difluorophenyl)-1,2,4-oxadiazole], the EC50 amounted to 0.306 µM.
Next, `FC(F)(F)c1cccc(-c2noc(-c3cnn(C4CCCCC4)c3C3CCOCC3)n2)c1` [Example 87, 5-(1-cyclohexyl-5-(tetrahydro-2H-pyran-4-yl)-1H-pyrazol-4-yl)-3-(3-(trifluoromethyl)phenyl)-1,2,4-oxadiazole]: 0.361 µM; `CNCc1ccc(-c2noc(-c3cnn(C4CCCCC4)c3C3CCOCC3)n2)cc1` [Example 88, 1-(4-(5-(1-cyclohexyl-5-(tetrahydro-2H-pyran-4-yl)-1H-pyrazol-4-yl)-1,2,4-oxadiazol-3-yl)phenyl)-N-methylmethanamine]: 0.047 µM.
Compound `CC(C)(C)Cn1ncc(-c2nc(-c3cccc(C(F)(F)F)c3)no2)c1-c1ccncc1` [Example 90, 5-(1-neopentyl-5-(pyridin-4-yl)-1H-pyrazol-4-yl)-3-(3-(trifluoromethyl)phenyl)-1,2,4-oxadiazole] showed a 50% effective concentration (EC50) of 0.035 µM.

For the origin of these results see patent US8802663B2, “Pyrazole oxadiazole derivatives as S1P1 agonists” (Merck Serono SA, priority 2009, dated 2014).
